# Reference: patent publication US20230312556A1, “ARYLAMIDE COMPOUND, PHARMACEUTICAL COMPOSITION COMPRISING SAME, AND PREPARATION METHOD THEREFOR AND USE THEREOF” (SICHUAN KELUN-BIOTECH BIOPHARMACEUTICAL CO., LTD., priority 2020, published 2023)
# Target: mutant CRAF enzyme (RAF1 Y340D and Y341D) (Homo sapiens (Human), UniProt P04049, Y340D/Y341D)
# Assay: RAF inhibition assay (TB-PMAP2K1 kit), mutant CRAF
# Assay type: biochemical
# Conditions: FLUORESCEIN-MAP2K1 substrate, 60 min reaction
# mutant CRAF enzyme (RAF1 Y340D and Y341D), sequence (P04049 whole entry Y340D/Y341D): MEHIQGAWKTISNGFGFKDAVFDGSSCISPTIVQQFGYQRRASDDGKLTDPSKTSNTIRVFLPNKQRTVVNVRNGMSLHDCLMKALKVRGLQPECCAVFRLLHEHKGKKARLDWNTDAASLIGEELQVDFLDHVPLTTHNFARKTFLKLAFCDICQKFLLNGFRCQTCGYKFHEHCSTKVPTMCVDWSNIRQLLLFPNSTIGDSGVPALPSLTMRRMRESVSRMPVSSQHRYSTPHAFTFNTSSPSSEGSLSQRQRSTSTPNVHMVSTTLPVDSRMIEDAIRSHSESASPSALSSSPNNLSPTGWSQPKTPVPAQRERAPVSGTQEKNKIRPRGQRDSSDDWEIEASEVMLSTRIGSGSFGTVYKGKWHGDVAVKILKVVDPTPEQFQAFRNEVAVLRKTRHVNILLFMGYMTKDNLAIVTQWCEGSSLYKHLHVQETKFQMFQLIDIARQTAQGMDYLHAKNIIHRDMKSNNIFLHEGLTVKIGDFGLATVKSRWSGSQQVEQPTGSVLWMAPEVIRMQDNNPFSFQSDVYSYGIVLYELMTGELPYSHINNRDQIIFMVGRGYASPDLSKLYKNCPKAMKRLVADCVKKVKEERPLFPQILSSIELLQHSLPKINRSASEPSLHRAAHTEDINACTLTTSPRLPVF
row,Structure (SMILES),IC50
1,"Cc1ccc2c(C(O)c3cccc(C(F)(F)F)c3)nccc2c1NC(=O)c1csc2c(N)ncnc12 (stereo not shown) [Compound 23, 4-amino-N-(1-(hydroxy(3-(trifluoromethyl)phenyl)methyl)-6-methylisoquinolin-5-yl)thieno[3,2-d]pyrimidine-7-carboxamide]",0.00393 ± 0.001 µM
2,"Cc1ccc2c(Cc3cccc(C(F)(F)F)c3)nccc2c1NC(=O)c1csc2c(N)ncnc12 [Compound 19, 4-amino-N-(6-methyl-1-(3-(trifluoromethyl)benzyl)isoquinolin-5-yl)thieno[3,2-d]pyrimidine-7-carboxamide]",0.0103 ± 0.00229 µM
3,"Cc1ccc2c(Nc3ccc(F)cc3F)nccc2c1NC(=O)c1cccc2c(N)ncnc12 [Compound 67, 4-amino-N-(1-((2,4-difluorophenyl)amino)-6-methylisoquinolin-5-yl)quinazoline-8-carboxamide]",0.00576 ± 0.00104 µM

# Target: mutant BRAF enzyme (BRAF-V600E) (Homo sapiens (Human), UniProt P15056, V600E)
# Assay: RAF inhibition assay (TB-PMAP2K1 kit), BRAF-V600E
# Assay type: biochemical
# Conditions: FLUORESCEIN-MAP2K1 substrate, 60 min reaction
# mutant BRAF enzyme (BRAF-V600E), sequence (P15056 whole entry V600E): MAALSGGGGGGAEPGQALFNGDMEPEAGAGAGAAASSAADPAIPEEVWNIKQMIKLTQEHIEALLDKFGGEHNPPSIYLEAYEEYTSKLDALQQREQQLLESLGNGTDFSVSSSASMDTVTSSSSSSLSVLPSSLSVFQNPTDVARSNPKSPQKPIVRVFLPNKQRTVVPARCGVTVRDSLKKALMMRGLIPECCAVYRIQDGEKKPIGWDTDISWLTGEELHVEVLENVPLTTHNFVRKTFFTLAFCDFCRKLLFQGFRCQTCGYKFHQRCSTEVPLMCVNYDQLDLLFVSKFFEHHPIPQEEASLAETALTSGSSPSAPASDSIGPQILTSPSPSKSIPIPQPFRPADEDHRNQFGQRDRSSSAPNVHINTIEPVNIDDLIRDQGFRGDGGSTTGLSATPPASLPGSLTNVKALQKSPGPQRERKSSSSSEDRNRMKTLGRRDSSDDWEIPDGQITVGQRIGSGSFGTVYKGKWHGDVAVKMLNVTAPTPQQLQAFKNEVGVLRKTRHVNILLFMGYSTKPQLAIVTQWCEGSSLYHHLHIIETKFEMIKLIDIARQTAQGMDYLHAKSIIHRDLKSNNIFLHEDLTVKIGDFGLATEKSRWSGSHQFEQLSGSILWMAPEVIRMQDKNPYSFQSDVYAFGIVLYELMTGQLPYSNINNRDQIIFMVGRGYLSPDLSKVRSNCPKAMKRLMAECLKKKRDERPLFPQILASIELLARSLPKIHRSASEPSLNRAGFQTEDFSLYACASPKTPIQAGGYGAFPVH
row,Structure (SMILES),IC50
1,"Cc1ccc2c(C(O)c3cccc(C(F)(F)F)c3)nccc2c1NC(=O)c1csc2c(N)ncnc12 (stereo not shown) [Compound 23, 4-amino-N-(1-(hydroxy(3-(trifluoromethyl)phenyl)methyl)-6-methylisoquinolin-5-yl)thieno[3,2-d]pyrimidine-7-carboxamide]",0.0132 ± 0.00317 µM
2,"Cc1ccc2c(Cc3cccc(C(F)(F)F)c3)nccc2c1NC(=O)c1csc2c(N)ncnc12 [Compound 19, 4-amino-N-(6-methyl-1-(3-(trifluoromethyl)benzyl)isoquinolin-5-yl)thieno[3,2-d]pyrimidine-7-carboxamide]",0.0139 ± 0.00324 µM
3,"Cc1ccc2c(Nc3ccc(F)cc3F)nccc2c1NC(=O)c1cccc2c(N)ncnc12 [Compound 67, 4-amino-N-(1-((2,4-difluorophenyl)amino)-6-methylisoquinolin-5-yl)quinazoline-8-carboxamide]",0.00866 ± 0.00095 µM
4,"Cc1ccc2c(Nc3cc(Cl)ccc3F)nccc2c1NC(=O)c1cc(F)cc2c(N)ncnc12 [Compound 84, 4-amino-N-(1-((5-chloro-2-fluorophenyl)amino)-6-methylisoquinolin-5-yl)-6-fluoroquinazoline-8-carboxamide]",0.0238 ± 0.00441 µM
5,"Cc1ccc2c(C(O)c3ccc(N(C)C)nc3)nccc2c1NC(=O)c1csc2c(N)ncnc12 (stereo not shown) [Compound 37, 4-amino-N-(1-((6-(dimethylamino)pyridin-3-yl)(hydroxy)methyl)-6-methylisoquinolin-5-yl)thieno[3,2-d]pyrimidine-7-carboxamide]",0.0204 ± 0.00303 µM
6,"Cc1ccc2c(Nc3ccc(CN(C)C)c(C(F)(F)F)c3)nccc2c1NC(=O)c1cnc2c(N)ncnn12 [Compound 62, 4-amino-N-(1-((4-((dimethylamino)methyl)-3-(trifluoromethyl)phenyl)amino)-6-methylisoquinolin-5-yl)imidazo[2,1-f][1,2,4]triazine-7-carboxamide]",0.0197 ± 0.00467 µM
7,"Cc1ccc2c(C(O)c3cccc(Cl)c3)nccc2c1NC(=O)c1csc2c(N)ncnc12 (stereo not shown) [Compound 17, 4-amino-N-(1-((3-chlorophenyl)(hydroxy)methyl)-6-methylisoquinolin-5-yl)thieno[3,2-d]pyrimidine-7-carboxamide]",0.00573 ± 0.00105 µM
8,"COc1ccc(C(O)c2nccc3c(NC(=O)c4csc5c(N)ncnc45)c(C)ccc23)cc1 (stereo not shown) [Compound 6, 4-amino-N-(1-(hydroxy(4-methoxyphenyl)methyl)-6-methylisoquinolin-5-yl)thieno[3,2-d]pyrimidine-7-carboxamide]",0.0252 ± 0.00408 µM
9,"Cc1ccc2c(Nc3ccc(N(C)C)nc3)nccc2c1NC(=O)c1cccc2c(N)ncnc12 [Compound 59, 4-amino-N-(1-((6-(dimethylamino)pyridin-3-yl)amino)-6-methylisoquinolin-5-yl)quinazoline-8-carboxamide]",0.013 ± 0.00135 µM
10,"Cc1ccc2c(Nc3cc(F)ccc3F)nccc2c1NC(=O)c1cccc2c(N)ncnc12 [Compound 72, 4-amino-N-(1-((2,5-difluorophenyl)amino)-6-methylisoquinolin-5-yl)quinazoline-8-carboxamide]",0.0069 ± 0.0013 µM
11,"Cc1ccc2c(Nc3ccnc(C(F)(F)F)c3)nccc2c1NC(=O)c1cccc2c(N)ncnc12 [Compound 71, 4-amino-N-(6-methyl-1-((2-(trifluoromethyl)pyridin-4-yl)amino)isoquinolin-5-yl)quinazoline-8-carboxamide]",0.023 ± 0.00176 µM
12,"Cc1ccc2c(Nc3ccccc3F)nccc2c1NC(=O)c1cnc2c(N)ncnn12 [Compound 44, 4-amino-N-(1-((2-fluorophenyl)amino)-6-methylisoquinolin-5-yl)imidazo[2,1-f][1,2,4]triazine-7-carboxamide]",0.00088 ± 0.00015 µM
13,"Cc1ccc2c(Cc3ccc(N(C)C)nc3)nccc2c1NC(=O)c1csc2c(N)ncnc12 [Compound 36, 4-amino-N-(1-((6-(dimethylamino)pyridin-3-yl)methyl)-6-methylisoquinolin-5-yl)thieno[3,2-d]pyrimidine-7-carboxamide]",0.0225 ± 0.00441 µM
14,"COc1ccc(Nc2nccc3c(NC(=O)c4cnc5c(N)ncnn45)c(C)ccc23)cc1Cl [Compound 56, 4-amino-N-(1-((3-chloro-4-methoxyphenyl)amino)-6-methylisoquinolin-5-yl)imidazo[2,1-f][1,2,4]triazine-7-carboxamide]",0.00316 ± 0.00067 µM
15,"Cc1ccc2c(Nc3cccc(Cl)c3)nccc2c1NC(=O)c1cnc2c(N)ncnn12 [Compound 12, 4-amino-N-(1-((3-chlorophenyl)amino)-6-methylisoquinolin-5-yl)imidazo[2,1-f][1,2,4]triazine-7-carboxamide]",0.0015 ± 0.0002 µM
16,"Cc1ccc2c(Nc3cccc(Cl)c3F)nccc2c1NC(=O)c1cc(O)cc2c(N)ncnc12 [Compound 76, 4-amino-N-(1-((3-chloro-2-fluorophenyl)amino)-6-methylisoquinolin-5-yl)-6-hydroxyquinazoline-8-carboxamide]",0.0293 ± 0.00332 µM
17,"Cc1ccc2c(C(O)c3ccccc3Cl)nccc2c1NC(=O)c1csc2c(N)ncnc12 (stereo not shown) [Compound 14, 4-amino-N-(1-((2-chlorophenyl)(hydroxy)methyl)-6-methylisoquinolin-5-yl)thieno[3,2-d]pyrimidine-7-carboxamide]",0.0063 ± 0.0007 µM

row,Structure (SMILES),IC50
1,"Cc1ccc2c(Nc3cccc(Cl)c3F)nccc2c1NC(=O)c1cnc2c(N)ncnn12 [Compound 30, 4-amino-N-(1-((3-chloro-2-fluorophenyl)amino)-6-methylisoquinolin-5-yl)imidazo[2,1-f][1,2,4]triazine-7-carboxamide]",0.0041 ± 0.0002 µM
2,"Cc1ccc2c(Nc3cccc(Cl)c3F)nccc2c1NC(=O)c1cn(C)c2c(N)ncnc12 [Compound 101, 4-amino-N-(1-((3-chloro-2-fluorophenyl)amino)-6-methylisoquinolin-5-yl)-5-methyl-5H-pyrrolo[3,2-d]pyrimidine-7-carboxamide]",0.00558 ± 0.00057 µM
3,"Cc1ccc2c(Nc3ccc(Cl)cc3F)nccc2c1NC(=O)c1cnc2c(N)ncnn12 [Compound 55, 4-amino-N-(1-((4-chloro-2-fluorophenyl)amino)-6-methylisoquinolin-5-yl)imidazo[2,1-f][1,2,4]triazine-7-carboxamide]",0.00286 ± 0.00024 µM
4,"Cc1ccc2c(Nc3cccc(OCCN4CCOCC4)c3F)nccc2c1NC(=O)c1cccc2c(N)ncnc12 [Compound 98, 4-amino-N-(1-((2-fluoro-3-(2-morpholinoethoxy)phenyl)amino)-6-methylisoquinolin-5-yl)quinazoline-8-carboxamide]",0.0219 ± 0.00638 µM
5,"Cc1ccc2c(Cc3ccc(C(F)(F)F)cc3)nccc2c1NC(=O)c1csc2c(N)ncnc12 [Compound 34, 4-amino-N-(6-methyl-1-(4-(trifluoromethyl)benzyl)isoquinolin-5-yl)thieno[3,2-d]pyrimidine-7-carboxamide]",0.0269 ± 0.00258 µM
6,"Cc1ccc(Nc2nccc3c(NC(=O)c4cccc5c(N)ncnc45)c(C)ccc23)c(F)c1 [Compound 88, 4-amino-N-(1-((2-fluoro-4-methylphenyl)amino)-6-methylisoquinolin-5-yl)quinazoline-8-carboxamide]",0.0117 ± 0.00099 µM
7,"Cc1ccc2c(Nc3c(F)c(F)cc(F)c3F)nccc2c1NC(=O)c1cccc2c(N)ncnc12 [Compound 95, 4-amino-N-(6-methyl-1-((2,3,5,6-tetrafluorophenyl)amino)isoquinolin-5-yl)quinazoline-8-carboxamide]",0.0139 ± 0.00148 µM
8,"CCOc1ccc(Nc2nccc3c(NC(=O)c4cccc5c(N)ncnc45)c(C)ccc23)c(F)c1 [Compound 74, 4-amino-N-(1-((4-ethoxy-2-fluorophenyl)amino)-6-methylisoquinolin-5-yl)quinazoline-8-carboxamide]",0.0138 ± 0.0009 µM
9,"Cc1ccc2c(Nc3cccc(Cl)c3F)nccc2c1NC(=O)c1nccc2c(N)ncnc12 [Compound 66, 4-amino-N-(1-((3-chloro-2-fluorophenyl)amino)-6-methylisoquinolin-5-yl)pyrido[3,4-d]pyrimidine-8-carboxamide]",0.00257 ± 0.00032 µM
10,"Cc1ccc2c(Cc3cccc(Cl)c3F)nccc2c1NC(=O)c1csc2c(N)ncnc12 [Compound 8, 4-amino-N-(1-(3-chloro-2-fluorobenzyl)-6-methylisoquinolin-5-yl)thieno[3,2-d]pyrimidine-7-carboxamide]",0.00863 ± 0.00099 µM
11,"COc1ccc(Nc2nccc3c(NC(=O)c4cccc5c(N)ncnc45)c(C)ccc23)cc1OC [Compound 68, 4-amino-N-(1-((3,4-dimethoxyphenyl)amino)-6-methylisoquinolin-5-yl)quinazoline-8-carboxamide]",0.015 ± 0.00265 µM
12,"Cc1ccc2c(Nc3cccc(Cl)c3F)ncnc2c1NC(=O)c1cccc2c(N)ncnc12 [Compound 102, 4-amino-N-(4-((3-chloro-2-fluorophenyl)amino)-7-methylquinazolin-8-yl)quinazoline-8-carboxamide]",0.0124 ± 0.00305 µM
13,"Cc1ccc2c(C(O)c3ccc(Cl)cc3)nccc2c1NC(=O)c1csc2c(N)ncnc12 (stereo not shown) [Compound 20, 4-amino-N-(1-((4-chlorophenyl)(hydroxy)methyl)-6-methylisoquinolin-5-yl)thieno[3,2-d]pyrimidine-7-carboxamide]",0.0106 ± 0.00193 µM
14,"Cc1ccc2c(Nc3cccc(C(F)(F)F)c3)nccc2c1NC(=O)c1cccc2c(N)nccc12 [Comparative Example 2, 1-amino-N-(6-methyl-1-((3-(trifluoromethyl)phenyl)amino)isoquinolin-5-yl)isoquinoline-5-carboxamide, reference compound]",> 1 µM
15,"Cc1ccc2c(Nc3ccc(CN(C)C)cc3)nccc2c1NC(=O)c1cccc2c(N)ncnc12 [Compound 40, 4-amino-N-(1-((4-((dimethylamino)methyl)phenyl)amino)-6-methylisoquinolin-5-yl)quinazoline-8-carboxamide]",0.00851 ± 0.00102 µM
16,"Cc1ccc(Nc2nccc3c(NC(=O)c4cccc5c(N)ncnc45)c(C)ccc23)cc1 [Compound 65, 4-amino-N-(6-methyl-1-(p-tolylamino)isoquinolin-5-yl)quinazoline-8-carboxamide]",0.0048 ± 0.00078 µM
17,"Cc1ccc2c(Nc3cccc(Cl)c3F)nccc2c1NC(=O)c1cncc2c(N)ncnc12 [Compound 69, 4-amino-N-(1-((3-chloro-2-fluorophenyl)amino)-6-methylisoquinolin-5-yl)pyrido[4,3-d]pyrimidine-8-carboxamide]",0.0043 ± 0.00114 µM
